Source: PubChem BioAssay AID328 (DTP/NCI, 2004)
“And” between values parts separate entries of the source, which are not always exact repeats. Identical values can stand only once. Inconclusive results and toxic doses are left out. How the source made its calls: active means survival T/C of 150% or more; inactive means T/C below 125% in these data. Residues, ends and D or L forms follow the SMILES beside them.

Tested on: BDF1 mice, P388 leukemia ip, median survival T/C
Assay: NCI In Vivo Anticancer Drug Screen. Data for tumor model P388 Leukemia (intraperitoneal) in B6D2F1 (BDF1) mice
Settings: endpoint: median survival time, higher = longer survival
Summary of the method: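 T/C = treated-group survival ÷ vehicle-control survival; tumour transplanted into mice before dosing.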

[1] = dose: 100.0 mg/kg/injection, schedule: Q01DX009 (ip), vehicle: saline

Measured: T/C

C1CCNCC1.O=C([CH-]C(=O)C(F)(F)F)c1cccs1.O=C([CH-]C(=O)C(F)(F)F)c1cccs1.O=C([CH-]C(=O)C(F)(F)F)c1cccs1.O=C([CH-]C(=O)C(F)(F)F)c1cccs1.[Eu+3]
inactive: [1] 122 % of control

CN(C)c1ncnc2nsnc12
inactive: dose: 75.0 mg/kg/injection, schedule: Q04DX003 (ip), vehicle: saline with Tween-80 95 % of control

COC1/C=C/OC2(C)Oc3c(C)c(O)c4c(O)c(c(/C=N/N5CCN(Cc6ccccc6)CC5)c(O)c4c3C2=O)NC(=O)C(C)=C/C=C/C(C)C(O)C(C)C(O)C(C)C(OC(C)=O)C1C (centres undefined)
inactive: dose: 25.0 mg/kg/injection, schedule: Q01DX009 (ip), vehicle: saline 119 % of control | dose: 50.0 mg/kg/injection, schedule: Q01DX009 (ip), vehicle: saline 100 % of control

COC(=O)C1(C)CCC(c2ccc(OC)cc2)C(CC(=O)O)C1=O (centres undefined)
inactive: [1] 95 % of control | dose: 100.0 mg/kg/injection, schedule: Q04DX003 (ip), vehicle: saline 100 % of control | dose: 200.0 mg/kg/injection, schedule: Q01DX009 (ip), vehicle: saline 104 % of control | dose: 200.0 mg/kg/injection, schedule: Q04DX003 (ip), vehicle: saline 119 % of control | dose: 400.0 mg/kg/injection, schedule: Q01DX009 (ip), vehicle: saline 109 % of control | dose: 400.0 mg/kg/injection, schedule: Q04DX003 (ip), vehicle: saline 96 % of control

C=CCN1c2ccccc2Sc2cnccc21
inactive: dose: 50.0 mg/kg/injection, schedule: Q01DX009 (ip), vehicle: saline with Tween-80 109 % of control | dose: 100.0 mg/kg/injection, schedule: Q01DX009 (ip), vehicle: saline with Tween-80 100 % of control and 104 % of control | dose: 200.0 mg/kg/injection, schedule: Q01DX009 (ip), vehicle: saline with Tween-80 100 % of control

NCCCCC(N)C(=O)NC(CCCN=C(N)N)C(N)=O (stereo not drawn) (H-Lys-Arg-NH2; configuration not given here)
inactive: dose: 6.25 mg/kg/injection, schedule: Q04DX003 (ip), vehicle: water 115 % of control | dose: 12.5 mg/kg/injection, schedule: Q04DX003 (ip), vehicle: water 112 % of control | dose: 25.0 mg/kg/injection, schedule: Q01DX009 (ip), vehicle: water 101 % of control | dose: 25.0 mg/kg/injection, schedule: Q04DX003 (ip), vehicle: water 104 % of control | dose: 50.0 mg/kg/injection, schedule: Q01DX009 (ip), vehicle: water 108 % of control | dose: 50.0 mg/kg/injection, schedule: Q04DX003 (ip), vehicle: water 97 % of control | dose: 100.0 mg/kg/injection, schedule: Q01DX009 (ip), vehicle: water 111 % of control | dose: 100.0 mg/kg/injection, schedule: Q04DX003 (ip), vehicle: water 104 % of control | dose: 200.0 mg/kg/injection, schedule: Q01DX009 (ip), vehicle: water 106 % of control | dose: 400.0 mg/kg/injection, schedule: Q01DX009 (ip), vehicle: water 106 % of control

CCOC(=O)C1C(=O)C2CCc3c(ccc4ccccc34)N2C1=O (centres undefined)
inactive: dose: 50.0 mg/kg/injection, schedule: Q01DX009 (ip), vehicle: Klucel (hydroxypropylcellulose) (HPC) 100 % of control | dose: 50.0 mg/kg/injection, schedule: Q04DX003 (ip), vehicle: Klucel (hydroxypropylcellulose) (HPC) 95 % of control | dose: 100.0 mg/kg/injection, schedule: Q01DX009 (ip), vehicle: Klucel (hydroxypropylcellulose) (HPC) 110 % of control | dose: 100.0 mg/kg/injection, schedule: Q04DX003 (ip), vehicle: Klucel (hydroxypropylcellulose) (HPC) 95 % of control | dose: 200.0 mg/kg/injection, schedule: Q01DX009 (ip), vehicle: Klucel (hydroxypropylcellulose) (HPC) 100 % of control | dose: 200.0 mg/kg/injection, schedule: Q04DX003 (ip), vehicle: Klucel (hydroxypropylcellulose) (HPC) 100 % of control
